# Measured values published in US11951204B2, “Cell-penetrating peptides and composition including the same” (S-SKIN. CO., LTD., priority 2022, dated 2024).
# Ends that are not written are not given here. * marks the point of attachment. FITC = O=C1OC2(c3ccc(O)cc3Oc3cc(O)ccc32)c2ccc(NC(=S)*)cc21; Ahx = NCCCCCC(=O)O
# Assays:
# [1] = Cytotoxicity assay (WST-1, microscopy) in HDF-N cells; type: cell-based, human; settings: human, HDF-N cells (dermal fibroblasts, neonatal); for viability at 24 h, 25 µM / viability at 24 h, 50 µM / viability at 24 h, 100 µM / viability at 24 h, 200 µM: HDF-N, read-out: survival rate (WST-1); for viability at 24 h, 25 µM: 25 μM peptide; for viability at 24 h, 50 µM: 50 μM peptide; for viability at 24 h, 100 µM: 100 μM peptide; for viability at 24 h, 200 µM: 200 μM peptide; for viability at 24 h: at all concentrations (25-200 μM), read-out: survival rates of the HDF-N cells
# Procedure: (§1) Cytotoxicity of the cell-penetrating multifunctional peptide according to Example 1 was checked. Specifically, HaCaT cells (human keratinocytes) were inoculated at a concentration of 1.5×10^4 cells/well into a 96-well plate and incubated for 24 hours. Then, the medium was removed, followed by washing once with PBS, and replaced with a serum-free medium. The cells were treated with Spep001 (SEQ ID NO: 1), Spep002 (SEQ ID NO: 8) or Spep003 (SEQ ID NO: 9) at a concentration of 0 μM, 25 μM, 50 μM, 100 μM or 200 μM and then further incubated for 24 hours. Herein, culture conditions were maintained at 37° C. with 5% CO2.
# (§2) Also, at the time of completion of incubation, a WST-1 assay (Water Soluble Tetrazolium salt-1, EZ-assay kit, DoGenBio) was conducted. Specifically, 100 μL of a WST-1 solution was added to the well of cells after the completion of further incubation and then incubated for 3 hours. Thereafter, the absorbance at 450 nm was measured using a microplate spectrophotometer (Multiskan™ GO, thermo), and the result thereof is shown in FIG. 2B and Table 2 below.
# (§3) The appearance of HDF-N (human dermal fibroblast-neonatal) cells were imaged by a microscope as in Example 3, and the result thereof is shown in FIG. 3A(i) to FIG. 3A(xx). However, the HDF-N cells were inoculated at a concentration of 1.0×10^4 cells/well into a 96-well plate.
# [2] = system: HDF-N (human dermal fibroblast-neonatal) cells; test: as above; type: cell-based; settings: for cytotoxicity: HDF-N cells; for change in the appearance of the cells (microscope): HDF-N, all concentrations
# Procedure: as §1, §2, §3
# [3] = Cytotoxicity assay (WST-1, microscopy) in HaCaT cells; type: cell-based, human; settings: human, HaCaT cells (keratinocytes); for viability at 24 h, 25 µM / viability at 24 h, 50 µM / viability at 24 h, 100 µM / viability at 24 h, 200 µM: HaCaT, read-out: survival rate (WST-1); for viability at 24 h, 25 µM: 25 μM peptide; for viability at 24 h, 50 µM: 50 μM peptide; for viability at 24 h, 100 µM: 100 μM peptide; for viability at 24 h, 200 µM: 200 μM peptide; for viability at 24 h: at all concentrations (25-200 μM), read-out: survival rates of the HaCaT cells
# Procedure: as §1
# (§4) At the time of completion of further incubation, the appearance of the cells were imaged by a microscope, and the result thereof is shown in FIG. 2A(i) to FIG. 2A(xx).
# as §2
# (§5) Herein, all the result values are expressed in mean±standard deviation. The analysis result of each item was statistically analyzed by a 2-way analysis of variance (ANOVA) test. A Bonferroni post-test was conducted at a P value of *p<0.05 and **p<0.01 only when the significance was determined by ANOVA test. GraphPad prism 5.0.1 (GraphPad Software Inc., San Diego, CA, USA) was used as a statistical software program.
# [4] = system: HaCaT cells (human keratinocytes); test: as above; type: cell-based; settings: for cytotoxicity: HaCaT cells; for change in the appearance of the cells (microscope): HaCaT, all concentrations
# Procedure: as §1, §4, §2, §5
# HaCaT cells [5] = test: Cell penetration rate by flow cytometry; type: cell-based, human; settings: 10 μM, 37° C., 1 hour
# Procedure: (§6) HaCaT cells were inoculated at a concentration of 3×10^5 cells/well into a 6-well plate and incubated for 24 hours. Then, the cell culture medium was removed, followed by washing twice with HBSS, and replaced with an Opti-MEM medium. The cells were treated with 10 μM FITC-TAT, FITC-Spep001, FITC-Spep002 or FITC-Spep003 and incubated at 37° C. with 5% CO2 for 1 hour. […] Finally, the cells were treated with 1 mg/mL trypsin and thus separated into single cells, followed by centrifugation at 1,000 rpm for 5 minutes. The FITC fluorescence intensities of cell-penetrating peptides per living 10,000 cells were measured by performing flow cytometry (Navios Flow Cytometer by Beckman Coulter Life Sciences), and the result thereof is shown in FIG. 5A(i) to FIG. 5A(v) and FIG. 5B.
# HaCaT cells [6] = test: Dependence of cell penetration on ATP (flow cytometry); type: cell-based, human; settings: pre-treated with 2-DG and NaN3
# Procedure: as §6
# A test was conducted in the same conditions as those in Example 7 except that the cells were pre-treated with 2-DG (2-deoxyglucose, D6134, sigma) and NaN3 (sodium azide, 71289, sigma) one hour before treatment with FITC-TAT, FITC-Spep001, FITC-Spep002 or FITC-Spep003 to check the dependence of endocytosis on ATP. Then, the FITC fluorescence intensities of peptides penetrating into living cells were measured by flow cytometry as in Example 5, and the result thereof is shown in FIG. 7.
# HDF-N = test: Cytotoxicity assay of difunctional peptide (WST-1, microscopy); type: cell-based, human
# [7] = as above; type: cell-based, human; settings: human, HDF-N cells, HDF-N, read-out: cell proliferation rate / survival rate (WST-1)
Molecule,"viability at 24 h, 25 µM [1] [%]","viability at 24 h, 50 µM [1] [%]","viability at 24 h, 100 µM [1] [%]","viability at 24 h, 200 µM [1] [%]",viability at 24 h [1] [%],cytotoxicity [2],change in the appearance of the cells (microscope) [2],"viability at 24 h, 25 µM [3] [%]","viability at 24 h, 50 µM [3] [%]","viability at 24 h, 100 µM [3] [%]","viability at 24 h, 200 µM [3] [%]",viability at 24 h [3] [%],cytotoxicity [4],change in the appearance of the cells (microscope) [4],cell penetration rate (FITC-positive cell count) (HaCaT cells [5]) [%],also measured
"RKRWLRKPRP [Spep003, RKRWLRKPRP]",118 ± 5.3,104 ± 1.71,108 ± 3.07,113.5 ± 0.59,≥ 90,do not express cytotoxicity,no change in the appearance,98.3 ± 4.45,98.6 ± 1.01,103 ± 0.6,99.9 ± 1.79,≥ 90,do not express cytotoxicity,no change in the appearance,,
"FITC-Ahx-KRRWRKIPKR ({FITC-Ahx}-KRRWRKIPKR) [FITC-Spep002, Spep002 labelled with FITC at the N-terminal amine group]",,,,,,,,,,,,,,,6.3,cell penetration rate based on TAT-FITC with a cell penetration rate of 100% (HaCaT cells [5]): 23.3%; FITC fluorescence intensity under ATP deficiency (HaCaT cells [6]): decreased
"N=C(N)NCCC[C@H](NC(=O)[C@H](CCCNC(=N)N)NC(=O)[C@H](CCCNC(=N)N)NC(=O)[C@H](CCC(N)=O)NC(=O)[C@H](CCCNC(=N)N)NC(=O)[C@H](CCCNC(=N)N)NC(=O)[C@H](CCCCN)NC(=O)[C@H](CCCCN)NC(=O)[C@H](CCCNC(=N)N)NC(=O)CNC(=O)[C@@H](N)Cc1ccc(O)cc1)C(=O)O [TAT, YGRKRRQRRR, reference compound]",106 ± 3.38,94.9 ± 4.22,103 ± 3.02,96.7 ± 5.03,,,,102 ± 5.09,106.3 ± 1.05,106 ± 2.94,102 ± 2.15,,,,,
"O=C1OC2(c3ccc(O)cc3Oc3cc(O)ccc32)c2ccc(N=C=S)cc21 [FITC, Fluorescein-5-Isothiocyanate, reference compound]",,,,,,,,,,,,,,,0.4,
"KTTKSRLRLRQRRRR [KTTKS-Spep001, KTTKSRLRLRQRRRR]",,,,,,,,,,,,,,,,"change in the appearance of the cells (microscope) (HDF-N; 12.5 μM to 100 μM): no change in the appearance; cell proliferation (in words) (HDF-N; compared to control (0 μM)): maintained at a level similar to that of a control; viability at 24 h, 12.5 µM ([7]; 12.5 μM peptide): 111 ± 8.6%; viability at 24 h, 25 µM ([7]; 25 μM peptide): 120 ± 4.46%; viability at 24 h, 50 µM ([7]; 50 μM peptide): 107 ± 7.61%; viability at 24 h, 100 µM ([7]; 100 μM peptide): 94.1 ± 3.2%"
"RLRLRQRRRR [Spep001, RLRLRQRRRR]",93.39 ± 0.66,101 ± 2.71,95 ± 1.53,94.5 ± 2.41,≥ 90,do not express cytotoxicity,no change in the appearance,103 ± 1.62,103 ± 2.21,106 ± 2.23,110 ± 7.48,≥ 90,do not express cytotoxicity,no change in the appearance,,
